The text below walks through data of PMC12453121, “The combined effects of tick defensin persulcatusin with conventional antibiotics and antimicrobial proteins/peptides against Staphylococcus aureus” (Microbiology, 2025).

In test [1] the test system is S. aureus. The arrangement: method as in PMID 22705395. Conditions: cited from earlier work.
In test [2] the test system is S. aureus ATCC 29213. Put plainly: Killing kinetic assay of IP or vancomycin in growth and non-growth states. It is filed as cell-based, Staphylococcus aureus. Particulars: 30 °C; for survival rate in the non-growth state: 1×10^8 c.f.u./ml, within 0.5 h then constant, % of c.f.u./ml at 0 h, triplicate; for survival rate in the non-growth state / time after which bactericidal activity / reduction of survival rate appeared in growth cells: IP 32 µg/ml or vancomycin 16 µg/ml (8×MIC); for time after which bactericidal activity / reduction of survival rate appeared in growth cells: growth state (TSB, LB Lennox or MHB). The protocol:
To study the antimicrobial effect of IP on S. aureus cells in both the growth and non-growth states, a killing kinetic assay of IP against S. aureus incubated in nutrient medium was performed as per the method described below or in the physiological buffer (PBS). Bacterial cells grown in TSB for ~24 h were adjusted to 1×10^8 c.f.u. ml^−1 in TSB, LB Lennox broth, MHB or PBS with 32 µg ml^−1 IP or 16 µg ml^−1 vancomycin, as control for antibiotic inhibited cell wall biosynthesis via interaction with lipid II, followed by incubation at 30 ℃ for a further 0.5, 1, 2, 4, 6 and 8 h. Bacterial cells were then serially diluted with sterile PBS, plated on TSA and incubated overnight at 37 °C. Colony counts were then determined, and c.f.u. ml^−1 was calculated.

In test [3] the test system is S. aureus ATCC 29213. Conditions: for combined effect with IP (interpretation of FICI): named agent combined with IP, S. aureus ATCC 29213. The protocol: A checkerboard assay was performed to evaluate the combined effect of IP and conventional antibiotics using the broth microdilution method [3031] with a final inoculum concentration of 5×10^5 c.f.u. ml^−1. Bacterial cells cultured in MHB at 30 °C were suspended in MHB or cation-adjusted MHB (caMHB) for daptomycin treatment. Bacterial suspensions were dispensed into 96-well round polypropylene plates (Watson Bio Lab, Tokyo, Japan) at an inoculum concentration of 5.0×10^5 c.f.u. ml^−1. […] After incubation at 30 °C, the OD of each well was measured using a microplate reader (MTP-310; Corona Electric Co., Ltd., Ibaraki, Japan) at 660 nm (OD660). […] The fractional inhibitory concentration (FIC) was calculated as the MIC of drug A in combination with drug B divided by drug A alone. The FIC index (FICI) was calculated as the sum of each FIC, and the lowest FICI for each combination was interpreted as follows: FICI of <0.5 was defined as synergy, FICI of ≥0.5 but <1 was defined as partial synergy, FICI of ≥1 but <4 was defined as an additive effect or irrelevant and FICI of ≥4 was defined as antagonistic.

The subject of test [4] is S. aureus ATCC 29213. The test is described as follows: Killing kinetic assay of daptomycin with or without IP pretreatment. The test is classed as cell-based, Staphylococcus aureus. Conditions: c.f.u. count, triplicate. The protocol:
To examine the influence of S. aureus pretreated with IP on the efficacy of daptomycin against bacterial cells, a killing kinetic assay based on a modification of Grein’s method was conducted. Bacterial cells grown in MHB to the exponential growth phase were incubated with 16 µg ml^−1 IP (8×MIC) at 37 °C. Since IP interacts with the cell surface of S. aureus, causing depolarization within 15 min after incubation, the duration of the pretreatment with IP was set to […]. The cells were then centrifuged (5,000 g, 5 min, 25 °C), and the supernatant was discarded to remove IP. Pretreated cells were resuspended in caMHB with or without 10 µg ml^−1 daptomycin (10×MIC) and then incubated at 37 °C for 0, 15, 30, 60 and 120 min. The bacterial cells were then serially diluted with sterile PBS, and each dilution was plated on TSA plates. The colonies were left to incubate at 37 °C and were subsequently counted.

Test [5] concerns S. aureus. Conditions: IP on cell surface of S. aureus; cited from earlier work.
[6] abbreviates: named agent combined with IP (0.25–16 µg/ml), checkerboard broth microdilution in MHB (caMHB for daptomycin), 5×10^5 c.f.u./ml, 30 °C, no growth = OD660 <0.05, lowest FICI.

Where two headings read alike, the source gives them in different places. Where a SMILES comes first, the peptide text is derived from it. Bridges are numbered along the chain shown (N, C = ends). Where no end group is shown, it is not given here. [ ]: non-standard residue; d: D form. The star is where a group is joined. Ileψ(thiazoline)Cys = CC[C@H](C)[C@H](N)C1=N[C@H](C(=O)*)CS1; dOrn = NCCC[C@@H](N)C(=O)O A value given as a limit tells only on which side of the number the result lay.

Consider “areucin-1: antimicrobial peptide isolated from the marine polychaete lugworm Arenicola marina (printed arenicin-1 in b7) (RWCVYAYVRVRGVLVRYRRCW; ends and bridges not checked; cysteine pairing not given here; UniProt Q5SC60 182-202, looked up)”, for which, in test [1] (areucin-1 combined with chloramphenicol against S. aureus), the FICI with chloramphenicol is on record as 0.5. Besides, in test [1] (areucin-1 combined with erythromycin against S. aureus), the FICI with erythromycin is on record as 0.375.

As to `CN[C@H](CC(C)C)C(=O)N[C@H]1C(=O)N[C@@H](CC(N)=O)C(=O)N[C@H]2C(=O)N[C@H]3C(=O)N[C@H](C(=O)N[C@H](C(=O)O)c4cc(O)cc(O)c4-c4cc3ccc4O)[C@H](O)c3ccc(c(Cl)c3)Oc3cc2cc(c3O[C@@H]2O[C@H](CO)[C@@H](O)[C@H](O)[C@H]2O[C@H]2C[C@](C)(N)[C@H](O)[C@H](C)O2)Oc2ccc(cc2Cl)[C@H]1O` [vancomycin, Vancomycin], the “survival rate in the non-growth state” value in test [2] (PBS) is “no reduction”. In addition, the “time after which bactericidal activity / reduction of survival rate appeared in growth cells” value in test [2] came to 8 h. For the same compound, in test [3], the “FICI (fractional inhibitory concentration index)” value came to 2.0. Further, in test [3] (checkerboard), the “combined effect with IP (interpretation of FICI)” value (“combined effect with IP” for short) is listed as “additive or irrelevant”.

On to `CC[C@H](C)[C@H](N)C1=N[C@H](C(=O)N[C@@H](CC(C)C)C(=O)N[C@H](CCC(=O)O)C(=O)N[C@H](C(=O)N[C@H]2CCCCNC(=O)[C@H](CC(N)=O)NC(=O)[C@@H](CC(=O)O)NC(=O)[C@H](Cc3cnc[nH]3)NC(=O)[C@@H](Cc3ccccc3)NC(=O)[C@H]([C@@H](C)CC)NC(=O)[C@@H](CCCN)NC2=O)[C@@H](C)CC)CS1` [bacitracin, Bacitracin] ({Ileψ(thiazoline)Cys}-L[dE]IK[dOrn]I[dF]H[dD]N; lactam 4-C (inferred); N-terminus assumed), for which, in test [3] (setting [6]), the “FICI (fractional inhibitory concentration index)” value turned out to be 0.50. In addition, in test [3] (checkerboard), the “combined effect with IP” value was “Partial synergistic”.

For `Cc1nnc(SCC2=C(C(=O)O)N3C(=O)[C@@H](NC(=O)Cn4cnnn4)[C@H]3SC2)s1` [cefazolin, Cefazolin], the “FICI (fractional inhibitory concentration index)” value in test [3] (setting [6]) is listed as 0.75. In addition, the “combined effect with IP” value in test [3] (checkerboard) is “Partial synergistic”.

In the case of `O=C(N[C@H](CO)[C@H](O)c1ccc([N+](=O)[O-])cc1)C(Cl)Cl` [chloramphenicol, Chloramphenicol], the “FICI (fractional inhibitory concentration index)” value in test [3] (setting [6]) stood at 2.0. For the same compound, in test [3] (checkerboard), the “combined effect with IP” value is “additive or irrelevant”.

With `CCCCCCCCCC(=O)N[C@@H](Cc1c[nH]c2ccccc12)C(=O)N[C@H](CC(N)=O)C(=O)N[C@@H](CC(=O)O)C(=O)N[C@@H]1C(=O)NCC(=O)N[C@@H](CCCN)C(=O)N[C@@H](CC(=O)O)C(=O)N[C@H](C)C(=O)N[C@@H](CC(=O)O)C(=O)NCC(=O)N[C@H](CO)C(=O)N[C@@H]([C@H](C)CC(=O)O)C(=O)N[C@@H](CC(=O)c2ccccc2N)C(=O)O[C@@H]1C` [daptomycin, Daptomycin], the “FICI (fractional inhibitory concentration index)” value in test [3] was “exceeded 2.0”. Also, in test [3] (IP 0.25 to 1 µg/ml for nisin, 0.25 to 4 µg/ml for daptomycin, checkerboard), the “MIC in the presence of sublethal concentrations of IP compared with absence of IP” value is listed as “higher”. Further, in test [3] (checkerboard), the “combined effect with IP” value is on record as “additive, irrelevant or antagonistic”. For the same compound, the “time to significant reduction in bacterial cells (bactericidal activity)” value in test [4] (daptomycin 10 µg/ml (10×MIC), caMHB, 37 °C, no pretreatment, P<0.05) is no more than 2 h.

For “GFGCPFNQGACHRHCRSIGRRGGYCAGLFKQTCTCYSR (disulfide (positions not given here)) [IP, Persulcatusin, Tick defensin isolated from the hard tick Ixodes persulcatus, 38 aa, chemically synthesized, disulphide bridges formed]”, the “survival rate in the non-growth state” value in test [2] (PBS) was ~ 70%. In test [2] (PBS, IP 8×MIC, survival constant thereafter), the “time to bactericidal activity in PBS (non-growth state)” value is given as no more than 0.5 h. For the same compound, in test [2], the “time after which bactericidal activity / reduction of survival rate appeared in growth cells” value came out at 2 h. For the same compound, the “time to depolarization after incubation” value in test [5] is on record as no more than 15 min. For the same compound, the “effect of short-term IP pretreatment on killing by daptomycin” value in test [4] (IP 16 µg/ml (8×MIC) for 5 min at 37 °C, removed, then daptomycin 10 µg/ml in caMHB) is reported as “reduced the bactericidal activity of daptomycin”.
